This note sets out measurements from US12264156B2, “Compounds and pharmaceutical compositions thereof for the treatment of diseases” (GALAPAGOS NV, priority 2018, dated 2025).

What is called IC50 is the concentration that inhibits the measured activity by half. High values mean weaker potency in that assay, low ones greater potency in that assay. As usually defined, the EC50 is the concentration that produces a half-maximal response.

One assay deals with T1, SIK1 (Homo sapiens, UniProt P57059).
T1 construct: purchased Carna Biosciences 02-131
In words: ADP-Glo kinase assay, SIK1. Type of assay: biochemical. Particulars: ADP-Glo SIK kinase assay. In a few lines: (§1)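 ADP-Glo, RT throughout. Enz/substrate + ATP, 120 min; ADP-Glo reagent 40 min (ATP depletion); detection reagent 30 min; luminescence read. Neg ctrl 1% DMSO, pos ctrl 10 μM staurosporine, final concs.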
Background: In ADP-Glo the light output rises with the ADP produced.

The target in the next assay is T2, SIK2 (Homo sapiens, UniProt Q9H0K1).
T2 construct: purchased ThermoFisher Scientific PV4792
In words: ADP-Glo kinase assay, SIK2. Type of assay: biochemical. Particulars: ADP-Glo SIK kinase assay. In outline: as §1

The next assay addresses T3, SIK3 (Homo sapiens, UniProt Q9Y2K2).
T3 construct: purchased SignalChem S12-11G-100
In words: ADP-Glo kinase assay, SIK3. Type of assay: biochemical. As to conditions: ADP-Glo SIK kinase assay. In outline: as §1

The test system of assay [1] is LPS-induced TNFα in monocyte-derived macrophages (MdM). In words: MdM assay: LPS-triggered TNFα (ELISA). Type of assay: cell-based, human. As to conditions: Homo sapiens, Macrophage, 20 h, monocyte-derived macrophages, LPS 200 ng/mL, supernatant after 20 h; read-out: TNFα EC50. On the procedure:
This assay evaluates illustrative compounds of the invention for their inhibition of LPS-induced TNFα and LPS triggered IL-10 secretion in monocyte-derived macrophages.
PBMCs are isolated from human blood samples (buffycoats). The buffy coat is aseptically transferred into a 50 mL Falcon tube, and diluted 1/2 in PBS. Falcon tubes are filled with 20 mL Lymphoprep™, on top of which 25 mL of the buffy coat is carefully added, tubes are centrifuged for 35 min at 400 g in temperature controlled centrifuge, without brake, at 25° C. PBMCs are aspirated from the white interface layer between sample and Lymphoprep™. PBMCs are washed five times in PBS.
PBMCs are centrifuged at 300×g for 10 min and resuspended at a density of 1.0*10^7 cells/80 μL Miltenyi buffer (PBS, pH 7.4, 1% FBS, 2 mM EDTA).
Starting from this point of the protocol all steps are performed on ice. 20 μL of CD14+ micro-beads are added per 1.0*10^7 cells, the tube is mixed and incubated for 15 min in the fridge at 4° C. Cell suspension volume is adjusted to total volume of 100 mL using Miltenyi buffer, mixed gently and subsequently centrifuged for 10 min at 300×g. Supernantant is discarded and cell pellet is resuspended in 12 mL of Miltenyi buffer.
Four LS columns are placed in the MACS Separator (magnet) from Miltenyi Biotec, and are prewet by rinsing with 3 mL of MACS buffer per column. Three mL of cell suspension is added onto the column (max 1*10^8 of labelled cells/column), and columns are subsequently washed 3 times with 3 mL of Miltenyi buffer.
The columns are removed from the magnets, and 5 mL of Miltenyi buffer are added to the column to flush out the CD14+ fraction by pushing the plunger into the column. The flushed fractions are collected in a fresh 50 mL Falcon and volume is adjusted to 30 mL using Miltenyi buffer, cells are centrifuged for 10 min at 300×g. The obtained cell pellet is resuspended in 10 mL RPMI w/o FBS, and cell density is determined using a hematologic analyser (Sysmex XS-500i).
On day 10, MdMs are triggered and compound is added.
A compound dilution plate is made in 100% DMSO by 3-fold dilution of 10 mM stock solution. An intermediate dilution plate (10× final concentration) is made by diluting the compound dilution plate 50-fold in RPMI medium.
Medium is carefully removed from cell plates using multichannel pipette, and replaced by 80 μL fresh medium. 10 μL of the 10× final concentration compound is added to the cells and incubated for 1 hour at 37° C. before addition of trigger. No trigger conditions/trigger conditions are spiked with equal final DMSO concentrations of 0.2% DMSO. 10 μL of 10×LPS (final conc. 200 ng/mL) solution are added to all wells except for the ‘no trigger wells’ where 10 μL medium is added. Supernatant is collected after 2 h (IL-10 determination) and after 20 h (TNFα determination) of LPS triggering.
The plate is then washed once with PBST (PBS+0.05% Tween20) and once with PBS followed by the addition of 100 μL of blocking buffer (1% Bovine Serum Albumin (BSA)−5% Sucrose) and plates are sealed and incubated for at least 4 h at RT. After washing the plate once with PBST and once with PBS, 40 μL of standard or sample are added (TNFα standard curve is prepared using a 1/2 serial dilution starting from […]; dilutions are made in dilution buffer (PBS+1% BSA)). Plates are washed twice with PBST, and once with PBS, after which 35 μL of the detection antibody is added (final concentration 0.25 μg/mL diluted in dilution buffer) and plates are incubated for at least 2 h at RT. Plates are washed twice with PBST, and once with PBS, where after 35 μL of Strep-HRP conjugate (0.5 μg/mL final concentration diluted in dilution buffer) is added. Plates are incubated in the dark, at RT for at least 45 min but no longer than 1 hour. Plates are washed twice with PBST, and once with PBS.
(In an ELISA, binding on a coated surface is turned into a signal by an enzyme label.)

T2 sequence (Q9H0K1 whole entry): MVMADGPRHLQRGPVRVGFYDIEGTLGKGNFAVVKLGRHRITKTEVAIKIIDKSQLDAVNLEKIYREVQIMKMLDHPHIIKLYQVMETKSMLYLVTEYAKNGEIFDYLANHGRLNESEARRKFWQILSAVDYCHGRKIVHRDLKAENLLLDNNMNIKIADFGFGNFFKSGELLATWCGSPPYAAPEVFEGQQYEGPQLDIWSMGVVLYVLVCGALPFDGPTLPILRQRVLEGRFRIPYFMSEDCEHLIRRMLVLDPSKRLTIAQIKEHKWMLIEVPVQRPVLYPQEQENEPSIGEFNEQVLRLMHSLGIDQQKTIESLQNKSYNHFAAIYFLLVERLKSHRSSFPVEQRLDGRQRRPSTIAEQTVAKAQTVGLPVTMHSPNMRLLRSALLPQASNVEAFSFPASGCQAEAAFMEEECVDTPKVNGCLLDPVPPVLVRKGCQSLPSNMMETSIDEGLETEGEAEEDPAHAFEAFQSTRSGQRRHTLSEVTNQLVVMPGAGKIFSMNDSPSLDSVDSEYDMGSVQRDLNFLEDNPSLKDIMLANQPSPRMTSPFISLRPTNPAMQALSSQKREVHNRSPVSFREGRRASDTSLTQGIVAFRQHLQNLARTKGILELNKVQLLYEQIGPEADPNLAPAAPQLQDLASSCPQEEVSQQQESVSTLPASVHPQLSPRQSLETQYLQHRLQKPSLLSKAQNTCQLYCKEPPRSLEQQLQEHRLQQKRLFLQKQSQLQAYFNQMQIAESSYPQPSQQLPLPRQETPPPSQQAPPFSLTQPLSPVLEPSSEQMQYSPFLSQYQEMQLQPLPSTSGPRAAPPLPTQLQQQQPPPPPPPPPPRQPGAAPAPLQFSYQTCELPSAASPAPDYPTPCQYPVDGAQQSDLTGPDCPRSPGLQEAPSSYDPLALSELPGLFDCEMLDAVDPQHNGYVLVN
T1 sequence (P57059 whole entry): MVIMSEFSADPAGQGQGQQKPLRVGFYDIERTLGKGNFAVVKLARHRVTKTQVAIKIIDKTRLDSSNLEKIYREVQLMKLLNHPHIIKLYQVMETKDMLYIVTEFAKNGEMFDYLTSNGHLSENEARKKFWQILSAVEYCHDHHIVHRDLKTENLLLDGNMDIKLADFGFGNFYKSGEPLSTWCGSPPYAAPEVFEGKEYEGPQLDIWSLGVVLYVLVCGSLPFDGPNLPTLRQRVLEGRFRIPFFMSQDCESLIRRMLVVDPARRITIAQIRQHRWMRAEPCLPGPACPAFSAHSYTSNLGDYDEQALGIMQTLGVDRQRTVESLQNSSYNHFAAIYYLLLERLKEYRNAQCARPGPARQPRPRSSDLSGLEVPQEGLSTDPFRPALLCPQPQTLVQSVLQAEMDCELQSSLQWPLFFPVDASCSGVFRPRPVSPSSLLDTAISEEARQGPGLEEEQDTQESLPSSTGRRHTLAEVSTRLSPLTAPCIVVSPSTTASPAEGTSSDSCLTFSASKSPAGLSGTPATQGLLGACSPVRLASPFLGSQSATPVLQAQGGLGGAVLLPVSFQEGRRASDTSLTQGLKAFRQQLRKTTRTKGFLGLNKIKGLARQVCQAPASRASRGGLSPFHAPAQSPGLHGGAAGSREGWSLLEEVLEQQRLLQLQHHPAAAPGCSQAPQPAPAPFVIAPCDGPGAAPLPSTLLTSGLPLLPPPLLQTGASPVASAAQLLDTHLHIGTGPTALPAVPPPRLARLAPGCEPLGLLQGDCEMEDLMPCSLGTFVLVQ
T3 sequence (Q9Y2K2 whole entry): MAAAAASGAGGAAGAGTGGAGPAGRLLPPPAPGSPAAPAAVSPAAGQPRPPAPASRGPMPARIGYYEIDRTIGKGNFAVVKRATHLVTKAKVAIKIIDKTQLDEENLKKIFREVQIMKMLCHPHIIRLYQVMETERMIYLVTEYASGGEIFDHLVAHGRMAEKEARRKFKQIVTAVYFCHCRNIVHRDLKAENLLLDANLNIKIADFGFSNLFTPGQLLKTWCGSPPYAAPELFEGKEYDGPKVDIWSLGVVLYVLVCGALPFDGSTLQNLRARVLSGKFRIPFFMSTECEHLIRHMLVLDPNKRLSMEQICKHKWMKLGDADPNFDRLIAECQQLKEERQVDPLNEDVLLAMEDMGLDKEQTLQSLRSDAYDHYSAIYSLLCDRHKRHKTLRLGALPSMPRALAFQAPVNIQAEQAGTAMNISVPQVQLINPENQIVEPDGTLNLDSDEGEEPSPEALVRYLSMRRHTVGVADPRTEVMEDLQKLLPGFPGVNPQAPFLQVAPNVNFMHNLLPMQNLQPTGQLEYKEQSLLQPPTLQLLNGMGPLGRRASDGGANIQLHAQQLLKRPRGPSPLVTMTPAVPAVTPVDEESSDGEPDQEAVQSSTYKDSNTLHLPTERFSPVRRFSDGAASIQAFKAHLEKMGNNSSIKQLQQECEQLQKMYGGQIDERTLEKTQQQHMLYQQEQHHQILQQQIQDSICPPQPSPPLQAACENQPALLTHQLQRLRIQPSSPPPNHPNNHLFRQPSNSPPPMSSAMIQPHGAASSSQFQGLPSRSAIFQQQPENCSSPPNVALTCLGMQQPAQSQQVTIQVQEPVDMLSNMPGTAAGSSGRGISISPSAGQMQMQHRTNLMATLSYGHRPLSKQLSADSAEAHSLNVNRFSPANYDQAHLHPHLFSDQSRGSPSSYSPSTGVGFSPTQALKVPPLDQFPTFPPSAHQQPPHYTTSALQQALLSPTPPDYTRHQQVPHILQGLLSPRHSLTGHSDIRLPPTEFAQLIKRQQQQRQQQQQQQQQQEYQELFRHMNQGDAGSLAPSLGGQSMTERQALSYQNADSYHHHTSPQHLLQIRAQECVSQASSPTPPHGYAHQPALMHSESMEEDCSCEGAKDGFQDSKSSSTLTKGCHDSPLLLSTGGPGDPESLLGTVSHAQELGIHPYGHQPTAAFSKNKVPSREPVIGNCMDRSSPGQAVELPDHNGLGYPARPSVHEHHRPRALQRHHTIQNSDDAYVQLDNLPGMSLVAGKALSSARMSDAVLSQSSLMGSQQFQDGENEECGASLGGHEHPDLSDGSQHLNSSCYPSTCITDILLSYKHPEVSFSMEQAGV

For `COc1cc(-c2cnc3cc(OCCN4CC[C@H](F)C4)ccn23)cc(OC(F)F)c1C(=O)NC1CC1` [Cpd 160, N-cyclopropyl-2-(difluoromethoxy)-4-[7-[2-[(3S)-3-fluoropyrrolidin-1-yl]ethoxy]imidazo[1,2-a]pyridin-3-yl]-6-methoxy-benzamide], the 50% inhibitory concentration (IC50) at SIK1 lay within 10 to 100 nM; at SIK2 it was 0.01 to 10 nM; against SIK3, 0.01 to 10 nM. In addition, in assay [1], the EC50 was 100 to 1000 nM.
For `COc1cc(-c2cnc3cc(OC[C@@H]4CC(F)(F)CN4C)ccn23)cc(OC(F)F)c1C(=O)NC1CC1` [Cpd 189, N-cyclopropyl-2-(difluoromethoxy)-4-[7-[[(2S)-4,4-difluoro-1-methyl-pyrrolidin-2-yl]methoxy]imidazo[1,2-a]pyridin-3-yl]-6-methoxy-benzamide], the IC50 against SIK1 lay in the range of 10 to 100 nM; at SIK2 it was 0.01 to 10 nM; on SIK3, 0.01 to 10 nM. In addition, the 50% effective concentration (EC50) in assay [1] lay within 100 to 1000 nM.
Take `COc1cc(-c2cnc3cc(OCCN4CCOCC4)ccn23)cc2c1C(=O)NCC2` [Cpd 217, 8-methoxy-6-[7-(2-morpholinoethoxy)imidazo [1,2-a]pyridin-3-yl]-3,4-dihydro-2H-isoquinolin-1-one]: the IC50 against SIK1 lay within 10 to 100 nM; against SIK2 it was 0.01 to 10 nM; against SIK3, 0.01 to 10 nM. In assay [1], the EC50 lay within 100 to 1000 nM.
`O=C1c2c(cc(-c3cnc4cc(OCCN5CCOCC5)ccn34)cc2OC(F)F)CCN1C1CC1` [Cpd 224, 2-cyclopropyl-8-(difluoromethoxy)-6-[7-(2-morpholinoethoxy)imidazo [1,2-a]pyridin-3-yl]-3,4-dihydroisoquinolin-1-one]: the concentration for half-maximal inhibition (IC50) on SIK1 was 100 to 500 nM; against SIK2 it was 0.01 to 10 nM; at SIK3, 0.01 to 10 nM. For the same compound, the half-maximal effective concentration (EC50) in assay [1] was in the range of 100 to 1000 nM.
`COc1cc(-c2cnc3cc(OCCCN4CCOCC4)ccn23)cc(OC(F)F)c1C(=O)NC1CC1` [compound 21, N-cyclopropyl-2-(difluoromethoxy)-6-methoxy-4-[7-(3-morpholinopropoxy)imidazo[1,2-a]pyridin-3-yl]benzamide]: the half-maximal inhibitory concentration (IC50) was in the range of 10 to 100 nM at SIK1, 0.01 to 10 nM on SIK2 and 0.01 to 10 nM against SIK3. In addition, in assay [1], the concentration giving a half-maximal response (EC50) fell in the range of 0.1 to 100 nM.
As to `COc1cc(-c2cnc3cc(OCc4cnco4)ccn23)cc(OC(F)F)c1C(=O)NC1CC1` [compound 33, N-cyclopropyl-2-(difluoromethoxy)-6-methoxy-4-[7-(oxazol-5-ylmethoxy)imidazo[1,2-a]pyridin-3-yl]benzamide], the IC50 against SIK1 lay within 10 to 100 nM; on SIK2, 0.01 to 10 nM; against SIK3, 0.01 to 10 nM. Moreover, the 50% effective concentration (EC50) in assay [1] lay in the range of 0.1 to 100 nM.
For the compound `COc1cc(-c2cnc3cc(OCC4CCO4)ccn23)cc(OC(F)F)c1C(=O)NC1CC1` (stereo not drawn) [compound 35, N-cyclopropyl-2-(difluoromethoxy)-6-methoxy-4-[7-(oxetan-2-ylmethoxy)imidazo[1,2-a]pyridin-3-yl]benzamide], the IC50 lay in the range of 10 to 100 nM against SIK1, 0.01 to 10 nM at SIK2 and 0.01 to 10 nM at SIK3. Also, in assay [1], the EC50 is 100 to 1000 nM.
For `COc1cc(-c2cnc3cc(OCC4CCCCO4)ccn23)cc(OC(F)F)c1C(=O)NC1CC1` (stereo not drawn) [compound 48, N-cyclopropyl-2-(difluoromethoxy)-6-methoxy-4-[7-(tetrahydropyran-2-ylmethoxy)imidazo[1,2-a]pyridin-3-yl] benzamide], the IC50 at SIK1 lay in the range of 10 to 100 nM; at SIK2 it was 0.01 to 10 nM; against SIK3, 0.01 to 10 nM. Further, the EC50 in assay [1] fell in the range of 0.1 to 100 nM.
For the compound `COc1cc(-c2cnc3cc(OC[C@H]4COCCO4)ccn23)cc(OC(F)F)c1C(=O)NC1CC1` [compound 50, N-cyclopropyl-2-(difluoromethoxy)-4-[7-[[(2R)-1,4-dioxan-2-yl]methoxy]imidazo[1,2-a]pyridin-3-yl]-6-methoxy-benzamide], the IC50 on SIK1 fell in the range of 10 to 100 nM; at SIK2, 0.01 to 10 nM; against SIK3, 0.01 to 10 nM. The EC50 in assay [1] lay within 100 to 1000 nM.
Regarding `COc1cc(-c2cnc3cc(OCCCN4CCOCC4)ccn23)cc2c1C(=O)N(CC(F)(F)F)CC2` [compound 55, 8-methoxy-6-[7-(3-morpholinopropoxy)imidazo[1,2-a]pyridin-3-yl]-2-(2,2,2-trifluoroethyl)-3,4-dihydro isoquinolin-1-one], the half-inhibitory concentration (IC50) was in the range of 100 to 500 nM against SIK1, 0.01 to 10 nM against SIK2 and 0.01 to 10 nM against SIK3. Also, the EC50 in assay [1] fell in the range of 100 to 1000 nM.
Take `COc1cc(-c2cnc3cc(OC4CC5CCC4C5)ccn23)cc(OC(F)F)c1C(=O)NC1CC1` (stereo not drawn) [compound 58, N-cyclopropyl-2-(difluoromethoxy)-6-methoxy-4-(7-norbornan-2-yloxyimidazo[1,2-a]pyridin-3-yl)benzamide]: the half-maximal inhibitory concentration (IC50) on SIK1 lay in the range of 10 to 100 nM; at SIK2 it was 10 to 100 nM; at SIK3, 0.01 to 10 nM. Besides, the concentration for a half-maximal effect (EC50) in assay [1] lay within 1000 to 5000 nM.
For `COc1cc(-c2cnc3cc(OCCN(C)C)ccn23)cc2c1C(=O)N(CC#N)CC2` [compound 67, 2-[6-[7-[2-(dimethylamino)ethoxy]imidazo[1,2-a]pyridin-3-yl]-8-methoxy-1-oxo-3,4-dihydroisoquinolin-2-yl]acetonitrile], the results for the 50% inhibitory concentration (IC50) at SIK1, at SIK2 and at SIK3 were above 500 nM, 0.01 to 10 nM and 0.01 to 10 nM, respectively. The EC50 in assay [1] is 1000 to 5000 nM.
`COc1cc(-c2cnc3cc(OCCN(C(C)C)C(C)C)ccn23)cc(OC(F)F)c1C(=O)NC1CC1` [compound 78, N-cyclopropyl-2-(difluoromethoxy)-4-[7-[2-(diisopropylamino)ethoxy]imidazo[1,2-a]pyridin-3-yl]-6-methoxy-benzamide]: the figures for the half-inhibitory concentration (IC50) at SIK1, on SIK2 and against SIK3 were 100 to 500 nM, 0.01 to 10 nM and 0.01 to 10 nM, respectively. Moreover, in assay [1], the 50% effective concentration (EC50) lay in the range of 100 to 1000 nM.
`COc1cc(-c2cnc3cc(OC[C@@H]4CCCN4C)ccn23)cc(OC(F)F)c1C(=O)NC1CC1` [compound 79, N-cyclopropyl-2-(difluoromethoxy)-6-methoxy-4-[7-[[(2S)-1-methylpyrrolidin-2-yl]methoxy]imidazo[1,2-a]pyridin-3-yl]benzamide]: the IC50 was in the range of 10 to 100 nM against SIK1, 0.01 to 10 nM at SIK2 and 0.01 to 10 nM at SIK3. Also, the half-maximal effective concentration (EC50) in assay [1] was 100 to 1000 nM.
For `COc1cc(-c2cnc3cc(OCc4ccnn4C)ccn23)cc2c1C(=O)N(CC(F)(F)F)CC2` [compound 84, 8-methoxy-6-[7-[(2-methylpyrazol-3-yl)methoxy]imidazo[1,2-a]pyridin-3-yl]-2-(2,2,2-trifluoroethyl)-3,4-dihydroisoquinolin-1-one], the IC50 was in the range of 100 to 500 nM against SIK1, 10 to 100 nM on SIK2 and 0.01 to 10 nM on SIK3. The 50% effective concentration (EC50) in assay [1] was in the range of 100 to 1000 nM.
